Data from ChEMBL document CHEMBL4190316, “Synthesis and biological evaluation of 4-biphenylamino-5-halo-2(5H)-furanones as potential anticancer agents” (Eur J Med Chem, 2017).

How the values were obtained:
HaCaT = assay: Cytotoxicity against human HaCaT cells assessed as reduction in cell viability after 72 hrs by MTT assay; assay type: cell-based
MDA-MB-231 = assay: Cytotoxicity against human MDA-MB-231 cells assessed as reduction in cell viability after 72 hrs by MTT assay; assay type: functional, cell-based; details: MDA-MB-231, 72 h
CNE = assay: Cytotoxicity against human CNE1 cells assessed as reduction in cell viability after 72 hrs by MTT assay; assay type: functional, cell-based
MCF7 = assay: Cytotoxicity against human MCF7 cells assessed as reduction in cell viability after 72 hrs by MTT assay; assay type: functional, cell-based; details: MCF7, 72 h
[1] = Octanol-water partition coefficient, log P of the compound at 10 mM after 24 hrs by UV-vis spectroscopic method; assay type: physicochemical
C6 = assay: Cytotoxicity against rat C6 cells assessed as reduction in cell viability after 72 hrs by MTT assay; assay type: functional, cell-based; details: C6, 72 h
HepG2 = assay: Cytotoxicity against human HepG2 cells assessed as reduction in cell viability after 72 hrs by MTT assay; assay type: functional, cell-based; details: HepG2, 72 h
[2] = Cytotoxicity against human NCI-EC1 cells assessed as reduction in cell viability after 72 hrs by MTT assay; assay type: functional, cell-based

Compound | IC50 (HaCaT) | IC50 (MDA-MB-231) | IC50 (CNE) | IC50 (MCF7) | logP at 24 h, 10000 µM [1] | IC50 (C6) | IC50 (HepG2) | IC50 [2]
CCOC1OC(=O)C(Cl)=C1Nc1ccc(-c2ccc(N)cc2)cc1 (stereo not drawn) | 44.8 µM | 37.7 µM | > 100 µM | > 100 µM | 1.64 | 49.6 µM | > 100 µM | –
CCOC1OC(=O)C(Cl)=C1Nc1ccc(-c2ccccc2)cc1 (stereo not drawn) | 49.8 µM | 38.5 µM | 47 µM | 44.6 µM | 1.33 | 47.9 µM | 40.1 µM | 56 µM
COC1OC(=O)C(Br)=C1Nc1ccc(-c2ccc(N)cc2)cc1 (stereo not drawn) | 69.6 µM | > 100 µM | 68.6 µM | 59.6 µM | 1.46 | 64.2 µM | 82.3 µM | > 100 µM
